Measured values from patent publication US12239654B2, “Compounds and methods for treating neurological and cardiovascular conditions” (Astrocyte Pharmaceuticals, Inc., priority 2016, dated 2025).
Like-named read-outs stand apart in the source and are kept apart here. Marks after values point to notes of the source that are not given here.

Experiments:
[1] = test system: mice subjected to stroke; test: Photothrombosis-induced stroke in mice, TTC-stained brain infarction size; assay type: in vivo, C57Bl/6 mice; conditions: 24 hours
Method: Photothrombosis-induced Stroke: Photothrombosis was performed as described in Zheng et al 2010 (PloS One 5 (12): e14401). In brief, Rose Bengal is a fluorescent dye that when injected into the vasculature and excited, generates singlet oxygen that damages the endothelial wall and induces a local thrombosis (clot). Using this technique, mice were given a 0.1 mL tail-vein injection of sterilized Rose Bengal (RB, Sigma, U.S.A.) in artificial cerebral spinal fluid (aCSF). The RB concentration was 20 mg/mL. A cortical region was centered in the imaging field and illuminated with a green laser (543 nm, 5 mW) using a 0.8-NA 40× water-immersion objective (Nikon, Tokyo). The clot formation was monitored in real time until the targeted vessel or downstream capillaries were firmly occluded. Stable clots were subsequently identified by a non-fluorescent vessel segmentation ending with highly fluorescent regions. […] Treatments, MRS4322 (0.16 mg/kg; 0.5 μmol/kg) or MRS2365 (0.24 mg/kg; 0.5 μmol/kg) were introduced via intraperitoneal injections (i.p.). For experiments with A3 receptor antagonist MRS1523, mice were administered intraperitoneal injections (2 mg/kg) at the 0 and 2 hour timepoints to ensure receptor antagonism throughout the course of the study.
Animals and Photothrombosis-induced Stroke: Stroke was performed as described in Zheng et al 2010 (PloS One 5 (12): e14401). Female C57Bl/6 mice (4-6 months) were used in this study. From the methods of this manuscript: Mice were anesthetized at 3% isoflurane with 100% oxygen and subsequently maintained at 1% isoflurane through a nosecone. Depth of anesthesia was monitored and regulated according to vital signs, pinch withdrawal and eye blinks. Body temperature was maintained at 37° C. by a feedback-controlled heating pad (Gaymar T/Pump). Vital signs including oxygen saturation, respiratory rate, and heart rate were continuously monitored by using the MouseOx system (STARR Life Sciences). The hair on each mouse's head was trimmed and a small incision was made in the scalp to expose the skull. A custom-made stainless steel plate was glued to the skull with VetBond Tissue Adhesive (3M, St Paul, MN). A cranial thinned-skull imaging window was created over the right primary somatosensory cortex (˜1.5 mm posterior to Bregma and 2 mm lateral from midline) depending on the experiment. In brief, a large region of the skull was first thinned with the electric drill and then further thinned with a surgical blade. The final thickness of the thinned skull was approximately 50 μm. After the cranial imaging window was created, mice were transferred to microscope stage and used for photothrombosis or imaging experiments. For the repeat imaging experiments, the plate was carefully detached from the skull and the scalp was sutured (Ethicon 6-0 sild suture). After each experiment, the mice were either returned to cages until the next timepoint or sacrificed. All procedures were approved by the Institutional Animal Care and Use Committee (IACUC) at University of Texas Health Science Center at San Antonio. Thirty minutes following stroke or sham (uninjured), mice were treated with either vehicle (saline) or drugs (MRS4322, MRS2365, MRS5698 or Cl-IBMECA).
Post photothrombotic infarction evaluation. The size of cerebral infarcts was evaluated using 2,3,5-Triphenyltetrazolium chloride (TTC) staining as described in Zheng et al 2010 (PloS One 5 (12): e14401). In brief, RB-induced lesions in brain slices were stained with TTC. TTC is a colorless dye that stains healthy brain tissue red when reduced by the mitochondrial enzyme succinyl dehydrogenase (Bederson J B et al., 1986). The absence of staining in necrotic tissue is then used to define the area of a brain infarction. Mice were sacrificed by cervical dislocation, their brains removed and then placed in ice cold HBSS for 3 minutes. The brain was subsequently transferred to a brain mold (KOPF), sliced into 1 mm sections and immersed in 2% TTC (5 min) at 37° C. […]

[2] = Plasma binding determination by plasma ultrafiltration, mouse; assay type: in vitro ADME; conditions: mouse plasma, 1 μM
Method: (§1) Animals and Tissue Preparation: Plasma from male CD-1 mice was obtained from BioreclamationIVT (Westbury, NY) and stored at −80° C. until use. Male CD-1 mouse brains were obtained from BioreclamationIVT (Westbury, NY).
Plasma ultrafiltrate blank samples were prepared by thawing frozen plasma and then pre-warming plasma in a humidified 5% CO2 chamber at 37° C. for 60 minutes. Aliquots of 800 μL were transferred to Centrifree Centrifugal Filters (Ultracel regenerated cellulose (NMWL 30,000 amu) Lot R5JA31736) and centrifuged at 2900 RPM at 37° C. for 10 minutes; plasma water filtrates were collected and used in preparation of standards, blanks and QC standards.
Plasma samples were pre-warmed for 60 minutes in a humidified, 5% CO2 incubator maintained at 37° C. […] Spiked plasma samples were incubated on a rotary mixer in a humidified 5% CO2 chamber at 37° C. for a minimum of 60 minutes. After 60 minutes, three 800 μL aliquots of each sample were added to Centrifree centrifugal filters. The filters were subjected to centrifugation at 2900 rpm for 10 minutes at 37° C. Three 100 μL aliquots of residual plasma were collected along with ultrafiltrate for bioanalysis.
(§2) Plasma and brain concentrations of MRS4322 and MRS5698 in spiked plasma, brain homogenates and associated ultrafiltrates were determined by LC-MS/MS utilizing tolbutamide as an internal standard. […] The following tables outline the LC and MS/MS conditions employed (Tables 7 and 8).
(§3) For each tissue matrix, standard curves were created and LLOQ/ULOQ concentrations determined. The calibration range for the MRS4322 and MRS5698 plasma concentration standard curves was 400-1200 nM. The calibration range for MRS4322 and MRS5698 plasma ultrafiltrate standard curves was 100-1200 nM. The calibration range for MRS4322 brain homogenate and brain homogenate ultrafiltrate standard curves were 400-1200 nM and 100-1200 nM, respectively. The calibration range for MRS5698 brain homogenate and brain homogenate ultrafiltrate standard curves were 400-1200 nM and 1-500 nM, respectively.

[3] = Brain binding determination by brain homogenate ultrafiltration, mouse; assay type: in vitro ADME; conditions: for fraction unbound at 60 min, 1 μM: male, CD-1, mouse, brain homogenate, pH 7.4, mouse brain homogenate
Method: as §1
Brains were weighed and homogenized with 1:9 phosphate-buffered saline, pH 7.4 using an Omni tissue homogenizer. Brains from four mice were homogenized, pooled and mixed to form one sample.
Pooled homogenized brains were pre-warmed for 60 minutes in a humidified, 5% CO2 incubator maintained at 37° C. […] Spiked pooled brain homogenates were placed on a Nutator mixer in a humidified, 5% CO2 incubator at 37° C. for 60 minutes. After 60 minutes, three 800 μL aliquots of each sample were added to Centrifree centrifugal filters. The filters were subjected to centrifugation at 2900 rpm for 10 minutes at 37° C. Aliquots of residual brain homogenate and ultrafiltrate were collected for bioanalysis.
as §2, §3

| Compound | size of the brain infarction (TTC staining) ([1]; photothrombotic stroke mice, 100 ul of 100 uM ip within 30 minutes of clot formation, vs vehicle) | concentrations in the plasma ultrafiltrate [2] | fraction unbound at 60 min, 1 μM ([3]; 37° C., ultrafiltration, read-out: % Bound Mean (converted)) | fraction unbound at 60 min, 1 μM ([3]; 37° C., ultrafiltration, read-out: Fraction Unbound Mean) | concentrations in the brain homogenate ultrafiltrate ([3]; mouse brain homogenate, 1 μM) | % Bound Mean ([3]; mouse brain homogenate, 1 μM, 37° C., ultrafiltration) | size of brain infarctions in mice pretreated with A3 receptor antagonist MRS1523 ([1]; MRS1523 2 mg/kg ip at 0 and 2 hour, treatment within 30 minutes of clot formation) |
| --- | --- | --- | --- | --- | --- | --- | --- |
| Nc1nc(Cl)nc2c1ncn2[C@H]1[C@H](O)[C@H](O)[C@]2(CO)C[C@H]12 [MRS1873] | significantly reduced |  |  |  |  |  |  |
| CNC(=O)[C@@]12C[C@@H]1[C@@H](n1cnc3c(NCc4cccc(Cl)c4)nc(C#Cc4ccc(F)c(F)c4)nc31)[C@H](O)[C@@H]2O [MRS5698] |  | not detected | 0.0001 | < 0.000122 | not detected | >99.99* % | not reduced |
